Molecular target: T1, human recombinant HDAC6 (Homo sapiens, UniProt Q9UBN7)
T1 construct: purchased Calbiochem 382180
T1 sequence (Q9UBN7 1-1215): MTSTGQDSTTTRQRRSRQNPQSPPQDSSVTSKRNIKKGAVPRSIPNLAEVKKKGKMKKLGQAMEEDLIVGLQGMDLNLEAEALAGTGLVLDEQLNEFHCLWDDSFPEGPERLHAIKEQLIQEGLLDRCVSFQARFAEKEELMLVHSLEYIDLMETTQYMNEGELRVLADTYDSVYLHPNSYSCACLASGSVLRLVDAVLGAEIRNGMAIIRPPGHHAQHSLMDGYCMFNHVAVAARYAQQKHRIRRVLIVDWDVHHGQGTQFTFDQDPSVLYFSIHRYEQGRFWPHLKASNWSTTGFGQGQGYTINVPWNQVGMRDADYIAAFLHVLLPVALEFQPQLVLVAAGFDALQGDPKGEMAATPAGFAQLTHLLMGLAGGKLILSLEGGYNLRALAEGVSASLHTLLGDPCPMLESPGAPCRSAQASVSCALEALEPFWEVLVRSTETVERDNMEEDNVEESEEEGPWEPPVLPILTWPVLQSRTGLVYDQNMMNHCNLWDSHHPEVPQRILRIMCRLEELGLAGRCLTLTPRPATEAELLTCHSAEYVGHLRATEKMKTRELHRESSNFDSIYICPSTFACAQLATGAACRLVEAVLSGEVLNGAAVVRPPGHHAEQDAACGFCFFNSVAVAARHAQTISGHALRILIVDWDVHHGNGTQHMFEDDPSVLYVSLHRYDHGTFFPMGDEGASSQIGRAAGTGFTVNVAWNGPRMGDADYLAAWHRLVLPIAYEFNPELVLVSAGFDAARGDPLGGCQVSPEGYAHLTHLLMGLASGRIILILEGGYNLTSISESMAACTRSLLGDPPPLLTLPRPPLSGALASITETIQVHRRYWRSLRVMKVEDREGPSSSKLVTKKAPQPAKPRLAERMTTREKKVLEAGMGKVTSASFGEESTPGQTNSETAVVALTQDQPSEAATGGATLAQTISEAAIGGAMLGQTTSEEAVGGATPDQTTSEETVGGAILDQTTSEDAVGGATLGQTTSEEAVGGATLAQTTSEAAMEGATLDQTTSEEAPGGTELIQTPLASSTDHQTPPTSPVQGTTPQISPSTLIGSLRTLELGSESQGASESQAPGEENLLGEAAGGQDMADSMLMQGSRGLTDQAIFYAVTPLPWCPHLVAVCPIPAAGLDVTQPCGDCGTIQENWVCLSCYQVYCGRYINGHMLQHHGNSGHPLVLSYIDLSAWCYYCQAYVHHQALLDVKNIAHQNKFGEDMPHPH
Assay: HDAC6 enzyme activity inhibition assay (HDAC Fluorimetric Drug Discovery Kit)
Assay type: biochemical
Conditions: for HDAC6 selectivity (fold): HDAC1 vs HDAC6; for IC50: same protocol as the HDAC1 enzyme activity test
Method: In order to examine the HDAC6 selectivity of the compounds of formula I of the present invention by HDAC1 and HDAC6 enzymatic activity inhibition assays, an experiment was performed using a conventional substance as a control.
HDAC enzyme activity was measured using a HDAC Fluorimetric Drug Discovery Kit (BML-AK511, 516, Enzo Life Science). For the HDAC1 enzyme activity test, human recombinant HDAC1 (BML-SE456) was used as an enzyme source, and Fluor de Lys®-“SIRT1 (BNL-KI177) was used as a substrate. A 5-fold dilution of the compound was seeded into a 96-well plate, and then 0.3 μg of the enzyme and 10 μM of the substrate were added to each well of the plate and allowed to react at 30° C. for 60 minutes. Then, Fluor de Lys®-Developer II (BML-KI176) was added thereto and allowed to react for 30 minutes, after which the fluorescence value (Ex 360, Em 460) was measured using a multi-plate reader (Flexstation 3, Molecular Device). The HDAC6 enzyme was tested using human recombinant HDAC6 (382180) (Calbiochem) according to the same protocol as the HDAC1 enzyme activity test method. Based on the resulting values, each IC50 value was calculated using GraphPad Prism4.0 program.

HDAC6 selectivity (fold) | IC50 [nM] | SMILES
741 | 135 | O=S(=O)(CCCN1CCC(F)C1)N(Cc1ccc(-c2nnc(C(F)F)o2)cc1)c1ccccc1 (stereo in doubt) [Compound 11724, (R)—N-(4-(5-(difluoromethyl)-1,3,4-oxadiazol-2-yl)benzyl)-3-(3-fluoropyrrolidin-1-yl)-N-phenylpropane-1-sulfonamide]
302 | 331 | CS(=O)(=O)N(Cc1ccccn1)Cc1ccc(-c2nnc(C(F)(F)F)o2)cc1F [Compound 11044, N-(2-fluoro-4-(5-(trifluoromethyl)-1,3,4-oxadiazol-2-yl)benzyl)-N-(pyridin-2-ylmethyl)methanesulfonamide]
633 | 158 | CS(=O)(=O)N(Cc1ccc(-c2nnc(C(F)(F)F)o2)cc1)Cc1ccccn1 [Compound 11045, N-(pyridin-2-ylmethyl)-N-(4-(5-(trifluoromethyl)-1,3,4-oxadiazol-2-yl)benzyl)methanesulfonamide]
29 | 3470 | COc1ccc(S(=O)(=O)NCc2ccc(-c3nnc(C(F)(F)F)o3)cc2)cc1 [Compound 11078, 4-methoxy-N-(4-(5-(trifluoromethyl)-1,3,4-oxadiazol-2-yl)benzyl)benzenesulfonamide]
2631 | 38 | CS(=O)(=O)N(Cc1ccc(-c2nnc(C(F)F)o2)cc1F)c1cccnc1 [Compound 11120, N-(4-(5-(difluoromethyl)-1,3,4-oxadiazol-2-yl)-2-fluorobenzyl)-N-(pyridin-3-yl)methanesulfonamide]
39 | 2540 | CS(=O)(=O)NCc1ccc(-c2nnc(C(F)(F)F)o2)cc1 [Compound 11121, N-(4-(5-(trifluoromethyl)-1,3,4-oxadiazol-2-yl)benzyl)methanesulfonamide]
192 | 520 | CS(=O)(=O)N(Cc1ccccn1)Cc1ccc(-c2nnc(C(F)(F)F)o2)cn1 [Compound 11128, N-(pyridin-2-ylmethyl)-N-((5-(5-(trifluoromethyl)-1,3,4-oxadiazol-2-yl)pyridin-2-yl)methyl)methanesulfonamide]
48 | 2100 | COc1cc(-c2nnc(C(F)(F)F)o2)ccc1CN(c1cccnc1)S(C)(=O)=O [Compound 11129, N-(2-methoxy-4-(5-(trifluoromethyl)-1,3,4-oxadiazol-2-yl)benzyl)-N-(pyridin-3-yl)methanesulfonamide]
290 | 345 | CS(=O)(=O)N(Cc1ccc(-c2nnc(C(F)(F)F)o2)c(F)c1)c1cccnc1 [Compound 11133, N-(3-fluoro-4-(5-(trifluoromethyl)-1,3,4-oxadiazol-2-yl)benzyl)-N-(pyridin-3-yl)methanesulfonamide]
741 | 135 | O=S(=O)(c1cccnc1)N(Cc1ccc(-c2nnc(C(F)(F)F)o2)cc1)c1ccccc1 [Compound 11151, N-phenyl-N-(4-(5-(trifluoromethyl)-1,3,4-oxadiazol-2-yl)benzyl)pyridine-3-sulfonamide]
1724 | 58 | O=S(=O)(c1cccnc1)N(Cc1ccc(-c2nnc(C(F)F)o2)cc1)c1ccccc1 [Compound 11152, N-(4-(5-(difluoromethyl)-1,3,4-oxadiazol-2-yl)benzyl)-N-phenylpyridine-3-sulfonamide]
793 | 126 | CCS(=O)(=O)N(Cc1ccc(-c2nnc(C(F)(F)F)o2)cc1F)c1ccccc1 [Compound 11153, N-(2-fluoro-4-(5-(trifluoromethyl)-1,3,4-oxadiazol-2-yl)benzyl)-N-phenylethanesulfonamide]
5263 | 19 | CCS(=O)(=O)N(Cc1ccc(-c2nnc(C(F)F)o2)cc1F)c1ccccc1 [Compound 11154, N-(4-(5-(difluoromethyl)-1,3,4-oxadiazol-2-yl)-2-fluorobenzyl)-N-phenylethanesulfonamide]
1250 | 80 | O=S(=O)(c1cccnc1)N(Cc1ccc(-c2nnc(C(F)(F)F)o2)cc1)c1cccc(F)c1 [Compound 11155, N-(3-fluorophenyl)-N-(4-(5-(trifluoromethyl)-1,3,4-oxadiazol-2-yl)benzyl)pyridine-3-sulfonamide]
3448 | 29 | O=S(=O)(c1cccnc1)N(Cc1ccc(-c2nnc(C(F)F)o2)cc1)c1cccc(F)c1 [Compound 11156, N-(4-(5-(difluoromethyl)-1,3,4-oxadiazol-2-yl)benzyl)-N-(3-fluorophenyl)pyridine-3-sulfonamide]
4348 | 23 | CS(=O)(=O)N(Cc1ccc(-c2nnc(C(F)F)o2)cc1)c1ccccc1 [Compound 11168, N-(4-(5-(difluoromethyl)-1,3,4-oxadiazol-2-yl)benzyl)-N-phenylmethanesulfonamide]
7143 | 14 | CS(=O)(=O)N(Cc1ccc(-c2nnc(C(F)F)o2)cc1F)c1ccccc1 [Compound 11170, N-(4-(5-(difluoromethyl)-1,3,4-oxadiazol-2-yl)-2-fluorobenzyl)-N-phenylmethanesulfonamide]
11111 | 9 | CS(=O)(=O)N(Cc1ccc(-c2nnc(C(F)F)o2)cn1)c1ccccc1 [Compound 11172, N-((5-(5-(difluoromethyl)-1,3,4-oxadiazol-2-yl)pyridin-2-yl)methyl)-N-phenylmethanesulfonamide]
76 | 1310 | CS(=O)(=O)N(Cc1ccc(-c2nnc(C(F)F)o2)nc1)c1ccccc1 [Compound 11174, N-((6-(5-(difluoromethyl)-1,3,4-oxadiazol-2-yl)pyridin-3-yl)methyl)-N-phenylmethanesulfonamide]
559 | 179 | CS(=O)(=O)N(Cc1ccc(-c2nnc(C(F)(F)F)o2)cc1F)c1cccc(C(F)(F)F)c1 [Compound 11175, N-(2-fluoro-4-(5-(trifluoromethyl)-1,3,4-oxadiazol-2-yl)benzyl)-N-(3-(trifluoromethyl)phenyl)methanesulfonamide]
3571 | 28 | CS(=O)(=O)N(Cc1ccc(-c2nnc(C(F)F)o2)cc1F)c1cccc(C(F)(F)F)c1 [Compound 11176, N-(4-(5-(difluoromethyl)-1,3,4-oxadiazol-2-yl)-2-fluorobenzyl)-N-(3-(trifluoromethyl)phenyl)methanesulfonamide]
5000 | 20 | Cc1cccc(N(Cc2ccc(-c3nnc(C(F)F)o3)cc2F)S(C)(=O)=O)c1 [Compound 11178, N-(4-(5-(difluoromethyl)-1,3,4-oxadiazol-2-yl)-2-fluorobenzyl)-N-(m-tolyl)methanesulfonamide]
1613 | 62 | COc1cccc(N(Cc2ccc(-c3nnc(C(F)F)o3)cc2F)S(C)(=O)=O)c1 [Compound 11180, N-(4-(5-(difluoromethyl)-1,3,4-oxadiazol-2-yl)-2-fluorobenzyl)-N-(3-methoxyphenyl)methanesulfonamide]

— US10538498B2, “1,3,4-oxadiazole sulfonamide derivative compounds as histone deacetylase 6 inhibitor, and the pharmaceutical composition comprising the same” (Chong Kun Dang Pharmaceutical Corp., priority 2015, dated 2020)
